≈ marks a conversion by molar mass, not a printed value. Like-named read-outs stand apart in the source and are kept apart here. Blank lines part the entries; values can stand above or below the molecule they belong to.
Legend:
[1] = system: Fonsecaea pedrosoi (CFP 00791); assay: NIH Clinical Collection screening for antifungal activity (growth inhibition, OD 530 nm); assay type: cell-based; details: 10 µM, CFP00791 Fonsecaea pedrosoi isolate, 72–96 h; for inhibition at 10 µM: read-out: % Growth Inhibition
Procedure: These substances are part of the NIH Roadmap Molecular Libraries Screening Centers Network screening library, a collection of chemically diverse substances in Phase I-III clinical trials. Each substance was initially diluted to 1 mM in DMSO and stored at −20 °C until use. […] The final DMSO concentration corresponded to 0.5% v/v. The inoculum was prepared according to the protocol for filamentous fungi proposed by the European Committee on Antimicrobial Susceptibility Testing—EUCAST, with minor modifications. […] After growth, conidia were suspended in 3 mL of sterile distilled water with 0.1% Tween 20, vortexed, and the concentration adjusted to the 0.5 McFarland scale. The suspension was then diluted 1:10 in order to obtain a final working inoculum at 2–5 × 10^5 CFU/mL. Next, 100 µL of the inoculum was added to each well and the plates incubated at 35 °C for 72–96 h. Negative and positive controls consisted of culture medium alone and drug-free culture medium with the fungal inoculum previously described, respectively. Plates were read using a microplate reader (Epoch, Biotek, Wenusky, VT, USA) with a 530 nm filter to obtain the optical density. All plates were also visually read to confirm the equipment data. A calculation was performed to obtain the percentage of inhibition of fungal growth, according to the formula: (1 − (OD1/OD2)) × 100, where OD1 = optical density of the fungus in the presence of the drug; and OD2 = optical density of the growth control drug-free well.

[2] = system: different species that cause CBM; assay: MIC determination of hit drugs, stated over the panel of CBM agents; assay type: cell-based
Text: In this study, eight fungal isolates obtained from the Fiocruz Pathogenic Fungi Collection (CFP) and the American Type Culture Collection (ATCC®) were used. Fonsecaea pedrosoi (CFP 00791) was used throughout the study. This species is one of the main CBM agents worldwide. Cladophialophora carrionii (CFP 00910), Phialophora verrucosa (CFP 00937), Fonsecaea monophora (CFP 00911), Fonsecaea nubica (CFP 00912), Rhinocladiela similis (CFP 00790), Exophiala heteromorpha (ATCC® 28180), and Exophiala dermatitidis (ATCC® 28869) were used to determine the minimum inhibitory concentration (MIC) and in synergism assays. Strains were maintained on potato dextrose agar (PDA) (Sigma Chemical Corporation, St. Louis, MO, USA). Seven-day cultures incubated at 30 °C were used in the assays.
(§1) Minimum inhibitory concentrations (MICs) were determined using the method proposed by the European Committee on Antimicrobial Susceptibility Testing (EUCAST), with minor modifications. Hit drugs were serially diluted (80 μM to 0.15625 μM) in RPMI 1640 (twice concentrated, pH 7; supplemented with 2% glucose) buffered with MOPS in 96-well plates. The inoculums of all strains were prepared following the EUCAST protocol. Plates were incubated at 35 °C for 72–96 h. The MIC of the NCC substances was determined as the lowest concentration capable of inhibiting 100% of fungal growth when compared to the growth control well. MIC values were determined in duplicate.

[3] = system: Fonsecaea nubica (CFP 00912); assay: MIC determination (EUCAST, minor modifications); assay type: cell-based; details: F. nubica; for MIC: 100% growth inhibition, read-out: MIC
Procedure: as §1

[4] = system: Fonsecaea pedrosoi (CFP 00791); assay: Minimum fungicidal concentration determination; assay type: cell-based; details: F. pedrosoi
Procedure: (§2) Minimum fungicidal concentration (MFC) was determined in triplicate by transferring a 5 μL aliquot from each well without fungal growth of the microdilution plates used for MIC determination, as described above, onto 2% glucose Sabouraud agar (Sigma Chemical Corporation). The MFC was determined as the lowest drug concentration without fungal growth on Sabouraud agar after five days of incubation at 35 °C. When the MFC/MIC ratio of a hit drug was 1 or 2, the substance was considered fungicidal against the pathogen. If this ratio was greater than 2, the hit drug was considered to be fungistatic.

[5] = system: Rhinocladiela similis (CFP 00790); assay: Minimum fungicidal concentration determination; assay type: cell-based; details: R. similis
Procedure: as §2

[6] = system: Phialophora verrucosa (CFP 00937); assay: Minimum fungicidal concentration determination; assay type: cell-based; details: P. verrucosa
Procedure: as §2

[7] = system: Exophiala heteromorpha (ATCC 28180); assay: Minimum fungicidal concentration determination; assay type: cell-based; details: E. heteromorpha
Procedure: as §2

[8] = system: Fonsecaea nubica (CFP 00912); assay: Minimum fungicidal concentration determination; assay type: cell-based; details: F. nubica
Procedure: as §2

[9] = system: Exophiala dermatitidis (ATCC 28869); assay: Minimum fungicidal concentration determination; assay type: cell-based; details: E. dermatitidis
Procedure: as §2

[10] = system: Fonsecaea monophora (CFP 00911); assay: Minimum fungicidal concentration determination; assay type: cell-based; details: F. monophora
Procedure: as §2

[11] = system: Fonsecaea pedrosoi (CFP 00791); assay: MIC determination (EUCAST, minor modifications); assay type: cell-based; details: F. pedrosoi
Procedure: as §1

[12] = system: Rhinocladiela similis (CFP 00790); assay: MIC determination (EUCAST, minor modifications); assay type: cell-based; details: R. similis
Procedure: as §1

[13] = system: Cladophialophora carrionii (CFP 00910); assay: MIC determination (EUCAST, minor modifications); assay type: cell-based; details: C. carrionii
Procedure: as §1

[14] = system: Phialophora verrucosa (CFP 00937); assay: MIC determination (EUCAST, minor modifications); assay type: cell-based; details: P. verrucosa
Procedure: as §1

[15] = system: Exophiala heteromorpha (ATCC 28180); assay: MIC determination (EUCAST, minor modifications); assay type: cell-based; details: E. heteromorpha
Procedure: as §1

[16] = system: Exophiala dermatitidis (ATCC 28869); assay: MIC determination (EUCAST, minor modifications); assay type: cell-based; details: E. dermatitidis
Procedure: as §1

[17] = system: Fonsecaea monophora (CFP 00911); assay: MIC determination (EUCAST, minor modifications); assay type: cell-based; details: F. monophora
Procedure: as §1

[18] = system: Cladophialophora carrionii (CFP 00910); assay: Minimum fungicidal concentration determination; assay type: cell-based; details: C. carrionii
Procedure: The MFC was determined as the lowest drug concentration without fungal growth on Sabouraud agar after five days of incubation at 35 °C.

[19] = system: Fonsecaea pedrosoi (CFP 00791); details: F. pedrosoi; PDA; 7 days, 37 °C; albendazole at ½ MIC
Procedure: (§3) At the end of the seven days of incubation at 37 °C, the plates were read visually. The aspect of the colonies supplemented with albendazole were compared to those of the positive melanin and inhibition melanin controls, to determine whether the color of the albendazole-supplemented cultures resembled the positive DHN-melanin or the melanin inhibition control. Pictures of the colonies were captured using a Canon EOS Rebel T7+ digital camera.

[20] = system: Cladophialophora carrionii (CFP 00910); details: C. carrionii; PDA; 7 days, 37 °C; albendazole at ½ MIC
Procedure: as §3

[21] = system: Exophiala heteromorpha (ATCC 28180); details: E. heteromorpha; PDA; 7 days, 37 °C; albendazole at ½ MIC
Procedure: as §3

[22] = different species that cause CBM, highest concentration tested 80 µM, read-out: MIC

Molecule: Nc1nc(=O)[nH]cc1F [5-Fluorocytosine]
inhibition at 10 µM [1]: 68%

Molecule: O=c1[nH]cc(F)c(=O)[nH]1 [5-Fluorouracil]
inhibition at 10 µM [1]: 85%

Molecule: CCCCCCNC(=O)n1cc(F)c(=O)[nH]c1=O [Carmofur]
inhibition at 10 µM [1]: 100%

MIC [2, 22]: > 80 µM
Molecule: CN1C(=O)CC[C@H]1c1cccnc1 [Cotinine (nicotine), Cotinine]
inhibition at 10 µM [1]: 71%

Molecule: Clc1ccc(COC(Cn2ccnc2)c2ccc(Cl)cc2Cl)cc1 (centres unmarked) [Econazole nitrate]
inhibition at 10 µM [1]: 94%

MIC ([2]; different species that cause CBM, highest concentration tested 80 µM): above 80 µM
Molecule: C[C@H](N[C@@H](CCc1ccccc1)C(=O)O)C(=O)N1CCC[C@H]1C(=O)O [Enalaprilat]
% Growth Inhibition [1]: 67%

Molecule: O=C(NCC1CCCCN1)c1cc(OCC(F)(F)F)ccc1OCC(F)(F)F (centres unmarked) [Flecainide Acetate]
inhibition at 10 µM [1]: 95%

MIC [3]: 0.3125 µM (≈ 0.0769 µg/mL) | MIC ([2]; CBM agents except the Fonsecaea nubica isolate, read-out: MIC): > 80 µM
Molecule: O=c1[nH]c(=O)n([C@H]2C[C@H](O)[C@@H](CO)O2)cc1F [Floxuridine]
inhibition at 10 µM [1]: 86%

MIC [2, 22]: > 80 µM
Molecule: CC(=O)NC[C@H]1CN(c2ccc(N3CCOCC3)c(F)c2)C(=O)O1 [Linezolid]
inhibition at 10 µM [1]: 87%

Molecule: CN1CCCCC1CCN1c2ccccc2Sc2ccc([S+](C)[O-])cc21 (centres unmarked) [Mesoridazine (Serentil), Mesoridazine]
inhibition at 10 µM [1]: 86%

Molecule: Clc1ccc(COC(Cn2ccnc2)c2ccc(Cl)cc2Cl)c(Cl)c1 (centres unmarked) [Miconazole nitrate]
inhibition at 10 µM [1]: 99%

MIC [2, 22]: > 80 µM
Molecule: OCCN1C[C@H](O)[C@@H](O)[C@H](O)[C@H]1CO [Miglitol]
inhibition at 10 µM [1]: 90%

Molecule: CN(C)CC/C=C1/c2ccccc2COc2ccc(CC(=O)O)cc21 [Olopatadine (Patanol), Olopatadine]
inhibition at 10 µM [1]: 85%

MIC [2, 22]: > 80 µM
Molecule: COCCCOc1ccnc(C[S+]([O-])c2nc3ccccc3[nH]2)c1C (centres unmarked) [Rabeprazole]
inhibition at 10 µM [1]: 61%

MIC [2, 22]: 10 to 40 µM
Molecule: CN[C@H]1CC[C@@H](c2ccc(Cl)c(Cl)c2)c2ccccc21 [Sertraline]

Molecule: C=CC[C@@H]1/C=C(\C)C[C@H](C)C[C@H](OC)[C@H]2O[C@@](O)(C(=O)C(=O)N3CCCC[C@H]3C(=O)O[C@H](/C(C)=C/[C@@H]3CC[C@@H](O)[C@H](OC)C3)[C@H](C)[C@@H](O)CC1=O)[C@H](C)C[C@@H]2OC [Tacrolimus]
inhibition at 10 µM [1]: 89%

MIC ([11]; Fonsecaea pedrosoi, 100% growth inhibition, read-out: MIC): 5 µM (≈ 1.01 µg/mL) | MIC ([12]; 100% growth inhibition, read-out: MIC): 10 µM (≈ 2.01 µg/mL) | MIC ([13]; Cladophialophora carrionii, 100% growth inhibition, read-out: MIC): 5 µM (≈ 1.01 µg/mL) | MIC ([14]; Phialophora verrucosa, 100% growth inhibition, read-out: MIC): 5 µM (≈ 1.01 µg/mL) | MIC ([15]; Exophiala heteromorpha, ATCC28180, 100% growth inhibition, read-out: MIC): 10 µM (≈ 2.01 µg/mL) | MIC ([3]; Fonsecaea nubica): 5 µM (≈ 1.01 µg/mL) | MIC ([16]; Exophiala dermatitidis, ATCC28869, 100% growth inhibition, read-out: MIC): 10 µM (≈ 2.01 µg/mL) | MIC ([17]; Fonsecaea monophora, 100% growth inhibition, read-out: MIC): 5 µM (≈ 1.01 µg/mL)
Molecule: c1ccc2[nH]c(-c3cscn3)nc2c1 [Thiabendazole]
MFC:MIC Ratio [4]: 1 | fungicidal or fungistatic (MFC/MIC ratio) [4]: fungicidal (When the MFC/MIC ratio of a hit drug was 1 or 2, the substance was considered fungicidal) | MFC ([4]; Fonsecaea pedrosoi, read-out: MFC): 5 µM (≈ 1.01 µg/mL) | MFC:MIC Ratio [5]: 4 | MFC ([5]; read-out: MFC): 40 µM (≈ 8.05 µg/mL) | MFC:MIC Ratio [6]: 4 | MFC ([6]; Phialophora verrucosa, read-out: MFC): 20 µM (≈ 4.03 µg/mL) | MFC:MIC Ratio [7]: 8 | MFC ([7]; Exophiala heteromorpha, ATCC28180, read-out: MFC): 80 µM (≈ 16.1 µg/mL) | MFC:MIC Ratio [8]: 1 | fungicidal or fungistatic (MFC/MIC ratio) [8]: fungicidal (When the MFC/MIC ratio of a hit drug was 1 or 2, the substance was considered fungicidal) | MFC ([8]; Fonsecaea nubica, read-out: MFC): 5 µM (≈ 1.01 µg/mL) | MFC:MIC Ratio [9]: 8 | MFC ([9]; Exophiala dermatitidis, ATCC28869, read-out: MFC): 80 µM (≈ 16.1 µg/mL) | MFC:MIC Ratio [10]: 1 | fungicidal or fungistatic (MFC/MIC ratio) [10]: fungicidal (When the MFC/MIC ratio of a hit drug was 1 or 2, the substance was considered fungicidal) | MFC ([10]; Fonsecaea monophora, read-out: MFC): 5 µM (≈ 1.01 µg/mL) | Selectivity Index (SI) ([11]; CC50 Vero 24 h / MIC): 99.50 | Selectivity Index (SI) ([12]; CC50 Vero 24 h / MIC): 49.75 | Selectivity Index (SI) ([13]; CC50 Vero 24 h / MIC): 99.50 | Selectivity Index (SI) ([14]; CC50 Vero 24 h / MIC): 99.50 | Selectivity Index (SI) ([15]; CC50 Vero 24 h / MIC): 49.75 | Selectivity Index (SI) ([3]; CC50 Vero 24 h / MIC): 99.50 | Selectivity Index (SI) ([16]; CC50 Vero 24 h / MIC): 49.75 | Selectivity Index (SI) ([17]; CC50 Vero 24 h / MIC): 99.50 | MFC:MIC Ratio [18]: 1 | fungicidal or fungistatic (MFC/MIC ratio) [18]: fungicidal (When the MFC/MIC ratio of a hit drug was 1 or 2, the substance was considered fungicidal) | MFC ([18]; Cladophialophora carrionii, read-out: MFC): 5 µM (≈ 1.01 µg/mL) | inhibition at 10 µM [1]: 82%

Molecule: CCC(C)n1ncn(-c2ccc(N3CCN(c4ccc(OCC5COC(Cn6cncn6)(c6ccc(Cl)cc6Cl)O5)cc4)CC3)cc2)c1=O (centres unmarked) [itraconazole]
inhibition at 10 µM [1]: 100%

Molecule: Cc1cccc2sc3nncn3c12 [tricyclazole]
melanin production [19]: changes the color of colonies from dark green, gray or black (due to melanin) to reddish brown | melanin production [20]: changes the color of colonies from dark green, gray or black (due to melanin) to reddish brown | melanin production [21]: changes the color of colonies from dark green, gray or black (due to melanin) to reddish brown

Molecule: Medroxyprogesterone
% Growth Inhibition [1]: 91%
